From US9487813B2, “Antifungal target” (F2G LTD, priority 2009, dated 2016)
pIC50: −log10 of the molar value.

Columns and labels:
A. fumigatus PPTB = biological target: T1, A. fumigatus PPTB (Aspergillus fumigatus, UniProt Q4W9R0); experiment: fluorescence polarisation PPTB assay / high-throughput screen (CoA-Bodipy TMR transfer to ACP); format: biochemical; details: IC50 for CoA, assay carried out using unlabelled coenzyme A
T1 construct: NusA; His tag (vector-encoded, inferred from Ni-NTA purification); made in house; host or cells: E. coli BL21 (DE3)
T1 sequence (Q4W9R0 1-153): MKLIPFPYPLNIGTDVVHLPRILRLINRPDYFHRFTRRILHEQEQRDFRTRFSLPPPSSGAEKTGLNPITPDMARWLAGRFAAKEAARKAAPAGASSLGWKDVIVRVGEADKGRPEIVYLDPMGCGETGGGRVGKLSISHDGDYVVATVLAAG
Protocol: High-throughput fluorescent polarization screens for PPTB inhibitors were carried out in black, flat-bottom 384 well plates using the following equipment: Thermo Labsystems Multidrop 384 machine (Multidrop® 384) with dispensing cassette and plate adapter; Tecan Genesis Freedom and Tecan Te—Mo automated liquid handling robot with 235 μl tip head, plus appropriate PC/base unit/software; PerkinElmer Minitrak automated liquid handling robot with 235 μl tip head plus appropriate PC/base unit/software; and PerkinElmer Fusion-Alpha-FP HT plate reading spectrophotometer plus appropriate FP filters (Excitation filter 540 nm; Emission filter 580 nm, both filters with 20 nm bandwidth).
Buffer A: 62.5 mM Bis-Tris buffer (pH 6.75), 12.5 mM MgCl2. The final concentrations in the assay were 50 mM Bis-Tris and 10 mM MgCl2.
CoA-Bodipy TMR-ACP mix: 11.6 ml ACP (3.421 mg/ml) plus 1854.7 μl CoA-Bodipy TMR stock (see Section 3.2 above) was made up to 529.9 ml with Buffer A at 4° C.
PPTB enzyme: PPTB enzyme was typically used at 50 to 100 ng total protein/well; enzyme was used at a concentration that gave reaction linearity with respect to both time and protein concentration. This had to be determined for each enzyme batch. […]
Assays were carried out in black, flat-bottomed 384-well plates. […] The reaction was terminated by the addition of 25 μl Stop Reagent, after which plates were read in a spectrophotometer. […]

recombinant PPTB = recombinant PPTB (Aspergillus fumigatus, UniProt Q4W9R0); details: in the presence of magnesium ions and CoA-Bodipy TMR
Description: In the present work PPTB assays used a fluorescently-labelled coenzyme A molecule (CoA-Bodipy TMR), such that PPTB activity transferred the label onto the ACP. The PPTB reaction could therefore be followed by separating the products of the PPTB reaction on an SDS-PAGE gel and illuminating with UV light to see whether the ACP band had become fluorescent. For the high-throughput screen, the PPTB assays used a fluorescence polarisation approach. This measures changes in the orientation of plane-polarized light brought about by fluorophores that undergo significant molecular motion during their fluorescence lifetime. […] The reduction in rotation causes a reduction in the ability of the Bodipy TMR molecule to depolarise plane-polarised light, which can be measured.
Further experiments were carried out using fluorescence polarization to optimise the PPTB assay for high-throughput screening.

SMILES | pIC50 (A. fumigatus PPTB; plates read after 105 hours) | pIC50 (A. fumigatus PPTB; plates read on day one) | effect on the labelling reaction of ACP (recombinant PPTB)
CC(C)(COP(=O)(O)OP(=O)(O)OC[C@H]1O[C@@H](n2cnc3c(N)ncnc32)[C@H](O)[C@@H]1OP(=O)(O)O)[C@@H](O)C(=O)NCCC(=O)NCCS [CoA, coenzyme A] | 5.23 | 5.22 | –
O=C(O)CN(CCN(CC(=O)O)CC(=O)O)CC(=O)O [EDTA] | – | – | inhibited
